Consider two compounds from paper PMC8861063, “Increase water solubility of Centellaasiatica extract by indigenous bioenhancers could improve oral bioavailability and disposition kinetics of triterpenoid glycosides in beagle dogs” (Scientific Reports, 2022).

The conditions of data set [1]: dog, in vivo. From the text:
Eight healthy 8-month-old male beagles were obtained from the Chulalongkorn University Laboratory Animal Centre (CULAC), Chulalongkorn University. […] Food was provided twice a day, and water was available ad libitum. […] The animal experiments were approved by the Institutional Animal Care and Use Committee of the CULAC, Chulalongkorn University, Bangkok, Thailand (Protocol number 2073002, Approval date: February 21, 2020). All animal procedures were complied with the ethical principles and guidelines for the use of animals (National Research Council of Thailand, 2015). All animal experiments followed the ARRIVE reporting guidelines for documenting animal experiments.
(§1) One or two capsules containing the test substance were orally administered at 8:00 AM to the dogs following the experimental plan. […] The blood samples were centrifuged at 5000g for 10 min at 4 °C to collect plasma and then stored at − 80 °C until analysis. […] The volume of urine and weight of faeces were recorded and all samples were stored at − 80 °C until analysis. All dogs were reused with a washed out period of two weeks, to allow complete excretion of bioactive triterpenoids.
All biological samples (plasma, urine, and faeces) were subjected to protein precipitation to extract the major triterpenoids from the samples. Two hundred microliters of methanol with two internal standards (glycyrrhizin and glycyrrhetinic acid) was added to 50 µL of the biological sample and mixed for 10 min. Then, the sample was centrifuged at 12,000g for 10 min at 4 °C, and 10 µL of supernatant was injected into the LC–MS/MS system. Faeces samples were homogenised by adding methanol, then the mixture was centrifuged at 1500g for 10 min at 4 °C to collect the supernatant. In the case of the concentration of the biological sample exceeded the linear calibration curve; blank matrices were used to dilute before protein precipitation. For method validation, all major components in the biological sample of dog were determined and validated according to the previous reports with little modification.
The LC–MS/MS system was set up according to a previous published method. In brief, an LCMS-8060 coupled with a triple quadrupole mass spectrometer was controlled by LabSolution software version 5.86 (Shimadzu Corp.). A Synergi Fusion-RP C18 column (Phenomenex Inc.) maintained at 40 °C was used as the stationary phase. The analysis was run using absolute methanol and 0.2% formic acid in water as the mobile phase.
To evaluate significant differences between the pre- and post-dose of the test substances to the health status of dogs, the biochemical data were compared by using Student’s t-test. PK solution software version 2.0 (Summit Research Services) was used to analyse pharmacokinetic parameters by non-compartmental analysis. Cmax and Tmax were directly determined from plasma concentration–time curves. AUC0-24 was calculated using the trapezoidal rule and extrapolated to time infinity by the equation AUC0-inf = AUC0–24 + (Clast/kel), where Clast is the last observed plasma concentration after dosing and kel is the elimination rate constant. MRT was calculated as AUMC0-inf/AUC0-inf, where AUMC0-inf is the area under the first moment concentration–time curve. Vd was equal to dose/C0, where C0 is the plasma concentration at time zero and CL was calculated as dose/AUC0-inf. […] Absolute bioavailability was calculated as (AUCp.o./DOSEp.o.)/(AUCi.v./DOSEi.v.) × 100. Relative bioavailability was calculated from (AUCCTS/DOSECTS)/(AUCECa/DOSEECa) × 100. Before performing the statistical analysis in SPSS version 22.0 (IBM Corp.), the Shapiro–Wilk test was used to determine whether the data were normally distributed. A paired Student’s t test or Wilcoxon signed-rank test was used to determine significant differences of pharmacokinetic parameters between the groups.

The conditions of data set [2]: dog, in vivo, iv. On the procedure: as §1
All biological samples (plasma, urine, and faeces) were subjected to protein precipitation to extract the major triterpenoids from the samples. […] For method validation, all major components in the biological sample of dog were determined and validated according to the previous reports with little modification. […]
(§2) To evaluate significant differences between the pre- and post-dose of the test substances to the health status of dogs, the biochemical data were compared by using Student’s t-test. […] Cmax and Tmax were directly determined from plasma concentration–time curves. AUC0-24 was calculated using the trapezoidal rule and extrapolated to time infinity by the equation AUC0-inf = AUC0–24 + (Clast/kel), where Clast is the last observed plasma concentration after dosing and kel is the elimination rate constant. […] Absolute bioavailability was calculated as (AUCp.o./DOSEp.o.)/(AUCi.v./DOSEi.v.) × 100. […]

For data set [3] the following is noted: dog, in vivo. On the procedure:
as §1
as §2, with “constant. MRT was calculated as AUMC0-inf/AUC0-inf, where AUMC0-inf is the area under the first moment concentration–time curve. Vd was equal to dose/C0, where C0 is the plasma concentration at time zero and CL was calculated as dose/AUC0-inf.” for “constant.”, “100. Relative bioavailability was calculated from (AUCCTS/DOSECTS)/(AUCECa/DOSEECa) × 100.” for “100.”
The source holds these as a separate data set.

With `C[C@H]1[C@H](C)CC[C@]2(C(=O)O)CC[C@]3(C)C(=CC[C@@H]4[C@@]5(C)C[C@@H](O)[C@H](O)[C@@](C)(CO)[C@@H]5CC[C@]43C)[C@H]12` [asiatic acid], in data set [1] (po), the “plasma concentration compared with madecassic acid” value was “approximately tenfold higher”.
As to `C[C@H]1[C@H](C)CC[C@]2(C(=O)O[C@@H]3O[C@H](CO[C@@H]4O[C@H](CO)[C@@H](O[C@@H]5O[C@@H](C)[C@H](O)[C@@H](O)[C@H]5O)[C@H](O)[C@H]4O)[C@@H](O)[C@H](O)[C@H]3O)CC[C@]3(C)C(=CC[C@@H]4[C@@]5(C)C[C@@H](O)[C@H](O)[C@@](C)(CO)[C@@H]5[C@H](O)C[C@]43C)[C@H]12` [madecassoside], in data set [1] (iv, 0.46 mg/kg), the AUC0-24 of madecassoside is recorded as 15,662 ± 1927 µg.h/L, the AUC0-inf of madecassoside is 15,705 ± 1938 µg.h/L, the Half-life of madecassoside is given as 3.88 (0.40) h and the MRT of madecassoside worked out at 8.05 ± 0.99 h. For the same compound, the Vd of madecassoside in data set [1] (iv, 0.46 mg/kg) is on record as 0.18 ± 0.05 L/kg. The “excretion route of parent triterpenoid glycosides” value in data set [2] was “excreted via urine within 24 h”. Further, in data set [3], the “measured biochemical parameters (haematology, kidney, liver functions), pre-dose versus post-dose” value was “no significant differences”.
